What was measured:
[1] = biological target: B1 bradykinin receptor (Homo sapiens) (UniProt P46663); experiment: Selectivity interaction (Eurofins CEREP Diversity Profile (receptors and ion channels)) EUB0000279b BDKRB1; conditions: at 10 µM
[2] = biological target: T1, Serine/threonine-protein kinase Sgk3 (Homo sapiens) (UniProt Q96BR1); experiment: Selectivity interaction (Ambit KINOMEscan and KiNATiv profiling in Jurkat cells) EUB0000090b SGK3; type: cell-based; conditions: at 1 µM
T1 sequence (whole entry): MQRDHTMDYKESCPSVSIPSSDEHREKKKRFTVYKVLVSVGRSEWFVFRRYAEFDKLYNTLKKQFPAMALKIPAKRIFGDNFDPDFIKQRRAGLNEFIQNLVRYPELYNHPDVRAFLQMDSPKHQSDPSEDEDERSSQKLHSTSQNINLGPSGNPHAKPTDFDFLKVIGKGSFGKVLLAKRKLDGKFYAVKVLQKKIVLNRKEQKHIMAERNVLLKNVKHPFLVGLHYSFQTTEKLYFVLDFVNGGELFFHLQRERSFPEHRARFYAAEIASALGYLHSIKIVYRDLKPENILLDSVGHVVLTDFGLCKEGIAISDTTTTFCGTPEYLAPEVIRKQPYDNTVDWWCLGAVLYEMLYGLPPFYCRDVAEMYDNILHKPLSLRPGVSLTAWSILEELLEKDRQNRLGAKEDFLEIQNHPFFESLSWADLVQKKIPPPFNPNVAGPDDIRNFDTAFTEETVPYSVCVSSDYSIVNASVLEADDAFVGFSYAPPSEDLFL

[3] = biological target: Serine/threonine-protein kinase VRK2 (Homo sapiens) (UniProt Q86Y07); experiment: Selectivity interaction (KinomeScan (DiscoverX)) EUB0000655a VRK2; conditions: at 10 µM
[4] = biological target: Homeodomain-interacting protein kinase 1 (Homo sapiens, UniProt Q86Z02); experiment: Selectivity interaction (KinomeScan (DiscoverX)) EUB0000655a HIPK1; conditions: at 10 µM
[5] = biological target: Mitogen-activated protein kinase 8 (Homo sapiens, UniProt P45983); experiment: Selectivity interaction (KinomeScan (DiscoverX)) EUB0000655a MAPK8; conditions: at 10 µM
[6] = Selectivity interaction (KinomeScan (DiscoverX)) EUB0000607a CDPK1; conditions: at 10 µM
[7] = biological target: Mitogen-activated protein kinase kinase kinase 1 (Homo sapiens, UniProt Q13233); experiment: Selectivity interaction (ActivX KiNativ screen (ex vivo kinase selectivity in human PBMCs)) EUB0001619a MAP3K1; type: cell-based; conditions: PBMC, at 1 µM
[8] = biological target: Serine/threonine-protein kinase mTOR (Homo sapiens, UniProt P42345); experiment: Selectivity interaction (Kinase panel (KiNativ target engagement assay in Jurkat cells)) EUB0001635a MTOR; type: cell-based; conditions: Selectivity number of off-targets 0.0, Selectivity number of targets 233.0, Source Knowledge https://www.sciencedirect.com/science/article/pii/S2451945619300674?via%3Dihub, at 1 µM
[9] = biological target: Serine/threonine-protein kinase pim-3 (Homo sapiens) (UniProt Q86V86); conditions: at 10 µM
[10] = biological target: Polycystin-1 (Homo sapiens) (UniProt P98161); experiment: Selectivity interaction (ActivX KiNativ screen (kinase selectivity in THP-1 cell lysates)) EUB0000639a PKD1; type: subcellular; conditions: lysate
Sequence of Polycystin-1 (Homo sapiens) (P98161 24-4303 limits assumed): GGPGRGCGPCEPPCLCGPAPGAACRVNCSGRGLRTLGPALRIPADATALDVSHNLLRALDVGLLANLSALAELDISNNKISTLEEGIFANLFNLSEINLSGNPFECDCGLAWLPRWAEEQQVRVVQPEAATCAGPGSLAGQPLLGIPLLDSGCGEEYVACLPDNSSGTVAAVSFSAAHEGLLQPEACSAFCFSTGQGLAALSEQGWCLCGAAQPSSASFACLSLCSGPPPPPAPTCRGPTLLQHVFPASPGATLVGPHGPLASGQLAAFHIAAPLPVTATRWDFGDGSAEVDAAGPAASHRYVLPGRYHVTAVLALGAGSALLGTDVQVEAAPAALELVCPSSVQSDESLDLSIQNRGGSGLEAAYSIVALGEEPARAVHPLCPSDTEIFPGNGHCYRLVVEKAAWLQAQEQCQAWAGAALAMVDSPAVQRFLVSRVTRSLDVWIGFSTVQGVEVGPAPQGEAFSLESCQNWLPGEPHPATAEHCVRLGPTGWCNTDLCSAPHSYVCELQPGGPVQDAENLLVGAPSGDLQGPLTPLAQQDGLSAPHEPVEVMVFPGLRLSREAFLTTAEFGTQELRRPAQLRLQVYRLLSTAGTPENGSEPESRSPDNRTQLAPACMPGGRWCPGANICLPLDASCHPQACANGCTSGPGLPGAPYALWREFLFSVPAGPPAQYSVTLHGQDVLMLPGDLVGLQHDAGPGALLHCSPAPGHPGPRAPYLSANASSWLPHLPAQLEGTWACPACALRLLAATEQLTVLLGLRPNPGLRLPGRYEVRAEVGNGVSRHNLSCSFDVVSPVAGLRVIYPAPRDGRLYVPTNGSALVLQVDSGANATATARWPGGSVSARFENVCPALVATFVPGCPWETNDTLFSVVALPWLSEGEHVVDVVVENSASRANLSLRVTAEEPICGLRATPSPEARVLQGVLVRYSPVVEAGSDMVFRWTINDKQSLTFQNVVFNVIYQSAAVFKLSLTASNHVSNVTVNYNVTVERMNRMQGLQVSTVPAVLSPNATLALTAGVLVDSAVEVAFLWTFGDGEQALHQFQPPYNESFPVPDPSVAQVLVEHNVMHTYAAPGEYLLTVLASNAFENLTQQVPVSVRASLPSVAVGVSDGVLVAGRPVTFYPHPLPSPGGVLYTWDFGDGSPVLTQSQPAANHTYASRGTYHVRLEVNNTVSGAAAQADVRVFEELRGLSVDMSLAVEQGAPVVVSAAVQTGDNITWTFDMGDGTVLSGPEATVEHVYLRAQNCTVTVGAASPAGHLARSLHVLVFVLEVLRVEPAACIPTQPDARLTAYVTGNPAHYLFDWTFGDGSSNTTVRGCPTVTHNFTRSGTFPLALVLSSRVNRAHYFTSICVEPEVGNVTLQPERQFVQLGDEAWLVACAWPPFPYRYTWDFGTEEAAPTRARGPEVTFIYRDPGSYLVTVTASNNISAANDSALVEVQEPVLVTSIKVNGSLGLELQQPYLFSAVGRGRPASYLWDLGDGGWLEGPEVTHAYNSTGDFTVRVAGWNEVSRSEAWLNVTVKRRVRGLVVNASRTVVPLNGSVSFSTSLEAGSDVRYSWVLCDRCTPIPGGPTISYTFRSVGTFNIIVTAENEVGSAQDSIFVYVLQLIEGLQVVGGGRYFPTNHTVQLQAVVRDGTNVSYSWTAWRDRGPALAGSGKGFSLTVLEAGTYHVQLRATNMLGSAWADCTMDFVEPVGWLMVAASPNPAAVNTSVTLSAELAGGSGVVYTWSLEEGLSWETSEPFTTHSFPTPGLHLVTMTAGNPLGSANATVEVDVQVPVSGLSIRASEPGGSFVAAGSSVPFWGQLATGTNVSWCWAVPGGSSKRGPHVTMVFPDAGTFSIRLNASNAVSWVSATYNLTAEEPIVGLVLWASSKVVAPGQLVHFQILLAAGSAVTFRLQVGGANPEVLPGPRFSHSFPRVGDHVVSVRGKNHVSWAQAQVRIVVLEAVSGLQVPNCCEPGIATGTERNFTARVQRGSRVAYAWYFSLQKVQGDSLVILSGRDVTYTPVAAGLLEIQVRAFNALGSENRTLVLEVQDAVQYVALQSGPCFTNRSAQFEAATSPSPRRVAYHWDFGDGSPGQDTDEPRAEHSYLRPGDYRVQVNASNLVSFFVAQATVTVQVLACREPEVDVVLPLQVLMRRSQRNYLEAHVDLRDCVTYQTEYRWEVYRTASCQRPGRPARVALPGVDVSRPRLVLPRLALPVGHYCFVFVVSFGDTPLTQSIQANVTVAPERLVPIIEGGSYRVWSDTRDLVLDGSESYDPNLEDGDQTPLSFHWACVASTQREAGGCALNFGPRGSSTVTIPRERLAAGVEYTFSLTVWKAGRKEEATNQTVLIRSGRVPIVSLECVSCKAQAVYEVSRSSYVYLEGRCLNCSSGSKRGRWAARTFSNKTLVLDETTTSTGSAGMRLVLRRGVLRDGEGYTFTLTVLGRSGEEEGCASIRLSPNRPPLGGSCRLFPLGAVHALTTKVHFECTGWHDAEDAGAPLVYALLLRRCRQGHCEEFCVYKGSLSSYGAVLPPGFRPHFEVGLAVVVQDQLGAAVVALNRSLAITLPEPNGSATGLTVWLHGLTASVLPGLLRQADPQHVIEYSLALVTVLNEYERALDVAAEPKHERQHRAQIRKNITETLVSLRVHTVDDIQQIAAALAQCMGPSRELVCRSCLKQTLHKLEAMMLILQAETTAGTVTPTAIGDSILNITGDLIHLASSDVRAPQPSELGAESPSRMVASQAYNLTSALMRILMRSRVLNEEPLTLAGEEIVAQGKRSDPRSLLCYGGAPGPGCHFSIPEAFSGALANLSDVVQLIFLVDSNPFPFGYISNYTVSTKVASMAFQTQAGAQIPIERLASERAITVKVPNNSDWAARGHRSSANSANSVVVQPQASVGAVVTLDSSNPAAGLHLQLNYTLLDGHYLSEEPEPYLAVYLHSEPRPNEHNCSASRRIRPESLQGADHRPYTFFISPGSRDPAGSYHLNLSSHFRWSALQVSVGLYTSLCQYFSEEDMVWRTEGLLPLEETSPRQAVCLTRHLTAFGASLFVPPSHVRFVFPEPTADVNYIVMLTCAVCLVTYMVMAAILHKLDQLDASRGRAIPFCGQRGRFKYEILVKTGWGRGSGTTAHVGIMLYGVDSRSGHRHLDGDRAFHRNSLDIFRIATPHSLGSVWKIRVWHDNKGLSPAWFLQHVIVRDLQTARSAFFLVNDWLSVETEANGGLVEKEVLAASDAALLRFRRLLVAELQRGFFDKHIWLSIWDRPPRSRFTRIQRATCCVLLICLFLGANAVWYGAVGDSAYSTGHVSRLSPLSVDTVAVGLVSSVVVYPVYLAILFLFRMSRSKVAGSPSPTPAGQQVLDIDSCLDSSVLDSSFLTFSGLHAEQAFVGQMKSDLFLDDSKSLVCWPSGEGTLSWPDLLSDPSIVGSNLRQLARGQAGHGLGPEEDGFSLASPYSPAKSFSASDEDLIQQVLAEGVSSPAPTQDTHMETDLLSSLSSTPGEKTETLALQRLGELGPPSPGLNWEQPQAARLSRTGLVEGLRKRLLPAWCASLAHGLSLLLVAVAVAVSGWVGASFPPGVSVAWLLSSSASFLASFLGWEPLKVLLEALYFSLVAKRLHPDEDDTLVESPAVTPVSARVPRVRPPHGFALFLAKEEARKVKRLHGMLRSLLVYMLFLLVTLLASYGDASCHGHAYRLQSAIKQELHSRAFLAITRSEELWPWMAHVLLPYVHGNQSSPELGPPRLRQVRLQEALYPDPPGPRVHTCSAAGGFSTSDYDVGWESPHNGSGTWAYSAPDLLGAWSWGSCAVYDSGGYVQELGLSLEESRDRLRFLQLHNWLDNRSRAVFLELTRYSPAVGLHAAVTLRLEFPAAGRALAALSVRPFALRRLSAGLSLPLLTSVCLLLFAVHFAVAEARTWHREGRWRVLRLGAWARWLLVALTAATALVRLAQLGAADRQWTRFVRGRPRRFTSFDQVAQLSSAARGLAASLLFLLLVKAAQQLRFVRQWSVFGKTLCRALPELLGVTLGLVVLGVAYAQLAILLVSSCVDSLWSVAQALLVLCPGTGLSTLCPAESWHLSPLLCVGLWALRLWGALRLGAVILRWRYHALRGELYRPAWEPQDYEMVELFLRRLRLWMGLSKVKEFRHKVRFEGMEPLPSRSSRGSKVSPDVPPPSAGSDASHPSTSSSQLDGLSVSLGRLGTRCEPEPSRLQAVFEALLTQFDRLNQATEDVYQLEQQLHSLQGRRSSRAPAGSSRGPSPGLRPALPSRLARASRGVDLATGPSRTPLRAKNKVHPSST

[11] = biological target: Serine/threonine-protein kinase tousled-like 2 (Homo sapiens) (UniProt Q86UE8); experiment: Selectivity interaction (ActivX KiNativ screen (kinase selectivity in THP-1 cell lysates)) EUB0000639a TLK2; type: subcellular; conditions: lysate
Sequence of Serine/threonine-protein kinase tousled-like 2 (Homo sapiens) (Q86UE8 whole entry, looked up): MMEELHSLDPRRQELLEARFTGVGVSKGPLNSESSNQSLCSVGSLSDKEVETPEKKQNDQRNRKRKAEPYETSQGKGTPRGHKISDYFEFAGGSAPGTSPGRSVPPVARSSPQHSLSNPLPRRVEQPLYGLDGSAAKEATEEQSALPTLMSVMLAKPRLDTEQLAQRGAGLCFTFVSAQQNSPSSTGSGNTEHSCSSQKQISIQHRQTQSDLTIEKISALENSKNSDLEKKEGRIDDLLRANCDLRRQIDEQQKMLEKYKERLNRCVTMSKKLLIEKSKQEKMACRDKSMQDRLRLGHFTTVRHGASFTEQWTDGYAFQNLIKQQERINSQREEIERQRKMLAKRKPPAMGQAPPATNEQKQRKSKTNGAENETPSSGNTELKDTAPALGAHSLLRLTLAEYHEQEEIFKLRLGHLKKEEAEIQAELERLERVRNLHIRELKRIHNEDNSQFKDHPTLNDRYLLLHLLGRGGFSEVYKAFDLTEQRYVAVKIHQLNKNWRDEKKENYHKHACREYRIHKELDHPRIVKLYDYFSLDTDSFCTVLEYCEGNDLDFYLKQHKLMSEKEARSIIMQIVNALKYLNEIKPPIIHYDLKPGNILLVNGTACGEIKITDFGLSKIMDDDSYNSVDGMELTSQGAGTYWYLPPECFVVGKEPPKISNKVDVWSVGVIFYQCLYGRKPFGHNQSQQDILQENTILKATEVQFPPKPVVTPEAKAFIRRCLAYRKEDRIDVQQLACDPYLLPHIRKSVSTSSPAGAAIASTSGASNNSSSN

[12] = biological target: T2, Aurora kinase A (Homo sapiens) (UniProt O14965); experiment: Selectivity interaction (ActivX KiNativ screen (kinase selectivity in THP-1 cell lysates)) EUB0000639a STK6; type: subcellular; conditions: lysate, at 0.2 µM
T2 sequence (whole entry): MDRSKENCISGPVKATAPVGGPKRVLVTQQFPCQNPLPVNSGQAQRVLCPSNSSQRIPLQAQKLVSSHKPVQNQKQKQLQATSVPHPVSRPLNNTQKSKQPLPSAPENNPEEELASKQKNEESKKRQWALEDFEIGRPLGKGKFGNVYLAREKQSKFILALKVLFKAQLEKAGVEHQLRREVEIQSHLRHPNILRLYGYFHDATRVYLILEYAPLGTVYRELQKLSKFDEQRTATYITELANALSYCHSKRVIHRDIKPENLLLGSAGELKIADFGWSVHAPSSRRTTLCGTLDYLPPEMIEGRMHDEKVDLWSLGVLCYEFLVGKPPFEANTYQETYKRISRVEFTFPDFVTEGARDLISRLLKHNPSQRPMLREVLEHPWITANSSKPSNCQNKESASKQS

[13] = biological target: Serine/threonine-protein kinase pim-2 (Homo sapiens, UniProt Q9P1W9); experiment: Selectivity interaction (KinomeScan (DiscoverX)) EUB0000229b PIM2; conditions: at 10 µM
[14] = biological target: T3, Serine/threonine-protein kinase 17A (Homo sapiens) (UniProt Q9UEE5); experiment: Selectivity interaction (KinomeScan (DiscoverX)) EUB0000092b STK17A; conditions: at 10 µM
T3 sequence (whole entry): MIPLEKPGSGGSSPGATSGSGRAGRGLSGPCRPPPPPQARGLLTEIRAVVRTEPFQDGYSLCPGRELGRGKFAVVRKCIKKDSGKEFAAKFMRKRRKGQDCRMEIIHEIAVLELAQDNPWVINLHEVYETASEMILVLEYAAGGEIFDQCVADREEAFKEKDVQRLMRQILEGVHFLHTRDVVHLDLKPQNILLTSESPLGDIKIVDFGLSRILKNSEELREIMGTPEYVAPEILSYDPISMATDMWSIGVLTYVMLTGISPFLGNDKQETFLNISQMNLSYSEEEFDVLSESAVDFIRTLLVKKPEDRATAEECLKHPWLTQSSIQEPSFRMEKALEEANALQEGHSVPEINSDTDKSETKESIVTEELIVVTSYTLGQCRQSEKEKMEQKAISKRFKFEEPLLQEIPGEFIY

[15] = biological target: RAF proto-oncogene serine/threonine-protein kinase (Homo sapiens) (UniProt P04049); experiment: Selectivity interaction (Kinase screening (Upstate/Millipore)) EUB0000604a RAF1

SMILES: CC(=O)c1cc(-c2ccccc2OCC2CC2)c2ncccn12
- % of control [1]: 95%

SMILES: CN(C)C/C=C/C(=O)Nc1ccc(C(=O)N2CCCC(Nc3ncc(Cl)c(-c4c[nH]c5ccccc45)n3)C2)cc1 (stereo not drawn)
- % of control [2]: 84%

SMILES: CN(C)CCOc1ccc(-c2nc(-c3ccncc3)c(-c3ccc4c(c3)CC/C4=N\O)[nH]2)cc1
- % of control [3]: 94%
- % of control [4]: 11%
- % of control [5]: 92%

SMILES: CNC(=O)Nc1ccc(-c2nc(N3CC4CCC(C3)O4)c3cnn(C4CCC5(CC4)OCCO5)c3n2)cc1
- % of control [6]: 86%

SMILES: N#Cc1cccc(-c2c[nH]c3ncnc(N4CCOCC4)c23)c1
- % of inhibition [7]: 45%

SMILES: C=CC(=O)Nc1ccc(C(=O)Nc2[nH]nc3c2CN(C(=O)N[C@H](CN(C)C)c2ccccc2)C3(C)C)cc1
- % of engagement [8]: -11.9%

SMILES: Cc1cc([C@@H](C)Nc2ccccc2C(=O)O)c2nc(N3CCOCC3)cc(=O)n2c1 [AZD-6482]
- % of control [9]: 100%

SMILES: CC[C@@H]1[C@H](F)C(=O)N[C@@H]1COc1nccc2cc(C(N)=O)c(OC)cc12 [ZIMLOVISERTIB]
- % of inhibition ([10]; at 0.01 µM): -7.2%
- % of inhibition ([10]; at 0.04 µM): -3.5%
- % of inhibition ([10]; at 0.2 µM): -8.9%
- % of inhibition ([10]; at 1 µM): 8%
- % of inhibition ([10]; at 5 µM): 8.9%
- % of inhibition ([11]; at 0.01 µM): 16.6%
- % of inhibition ([11]; at 0.04 µM): 2.6%
- % of inhibition ([11]; at 0.2 µM): 18.7%
- % of inhibition ([11]; at 1 µM): 46.3%
- % of inhibition ([11]; at 5 µM): 73.5%
- % of inhibition [12]: 20.9%

SMILES: COc1cc(N(C)c2ccnc3ccc(C(F)(F)F)cc23)cc(OC)c1OC
- % binding [13]: 100%

SMILES: CCC(=O)N1CCN(c2ccc(-n3c(=O)ccc4cnc5ccc(-c6cnc7ccccc7c6)cc5c43)cc2C(F)(F)F)CC1
- % of control [14]: 93%

SMILES: Cc1cnc(Nc2ccc(F)cc2Cl)nc1-c1c[nH]c(C(=O)N[C@H](CO)c2cccc(Cl)c2)c1
- % of inhibition [15]: 3%

From ChEMBL document CHEMBL5465560, “Selectivity Literature for EUbOPEN Chemogenomic Library” (2024)
